This is an account of results in ChEMBL document CHEMBL1201862, “PubChem BioAssay data set” (2004).

What all share (experiment): DTP human tumour cell line panel, 48 h
In assay [1] the test system is ACHN.
Assay [2] deals with HOP-92.
The subject of assay [3] is K562.
Assay [4] has as its system NCI-H23.
In assay [5] the test system is NCI-H522.
Assay [6] relates to NCI/ADR-RES.
Assay [7] deals with OVCAR-3.
For assay [8], the system named is OVCAR-4.
The test system of assay [9] is OVCAR-8.
The test system of assay [10] is PC-3.
For assay [11], the system named is SF-295.
Assay [12] relates to SK-MEL-28.
Assay [13] relates to SK-MEL-2.
The subject of assay [14] is SK-OV-3.
The subject of assay [15] is SNB-19.
Assay [16] relates to SNB-75.
Assay [17] deals with TK-10.
The subject of assay [18] is UACC-257.
Assay [19] relates to UACC-62.
In assay [20] the test system is UO-31.

Molecules are shown by their SMILES.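 Dose response: 5 concentrations. Exposure: 48 h. Format: 96-well plates. Endpoint: linear interpolation; highest concentration if not reached. Abbreviation: GI50, concentration required for 50% inhibition of growth.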 Activity calls are given as the source filed them. No stated cut-off is given here; in the data, active = GI50 up to about 1.1 µM and inactive = higher.

As usually defined, the GI50 is the concentration that inhibits growth by half. As for `COc1ccc(Cc2c(N)[nH]c(=O)[nH]c2=O)cc1`, the GI50 in assay [1] was > 100 µM (inactive); in assay [2], 33.3 µM (inactive); in [3] it was > 100 µM (inactive); in assay [4] it was > 100 µM (inactive); in assay [5], > 100 µM (inactive); in assay [6] it was > 100 µM (inactive). Further, the GI50 in [7], in [8], in assay [9], in [10], in assay [11] and in assay [12] was > 100 µM (inactive) each time. For the same compound, the GI50 in [13], in [14], in [15], in assay [16], in assay [17] and in assay [18] was > 100 µM (inactive) in each case. Moreover, the values for the GI50 in [19] and in assay [20] were > 100 µM (inactive) and 90.2 µM (inactive), respectively.

Regarding `Cc1c2oc3c(C)cnc(C(=O)NC4C(=O)NC(C(C)C)C(=O)N5CCCC5C(=O)N(C)CC(=O)N(C)C(C(C)C)C(=O)OC4C)c3nc-2c(C(=O)NC2C(=O)NC(C(C)C)C(=O)N3CCCC3C(=O)N(C)CC(=O)N(C)C(C(C)C)C(=O)OC2C)c(N)c1=O` (centres undefined), the GI50 in [1] is 5.48 µM (inactive); in assay [2], 2.84 µM (inactive); in assay [3], 0.231 µM (active); in [4], 3.24 µM (inactive); in assay [5], 0.673 µM (active); in [6] it was > 61 µM (inactive). Further, the GI50 in [7] is 10.4 µM (inactive); in [8], 10.8 µM (inactive); in [9] it was 5.57 µM (inactive); in [10] it was 2.67 µM (inactive); in [11], 5.45 µM (inactive); in [12] it was 1.67 µM (inactive). The GI50 in [13] is 0.431 µM (active); in assay [14], 5.6 µM (inactive); in [15], 0.682 µM (active); in [16], 6.41 µM (inactive); in assay [17], 22.9 µM (inactive); in assay [18], 4.58 µM (inactive). The figures for the GI50 in [19] and in assay [20] were 1.32 µM (inactive) and 14.2 µM (inactive), respectively.

For `Cn1ccnc1Sc1ccc(/C=N/NC(=O)c2ccccc2[N+](=O)[O-])cc1[N+](=O)[O-]`, the GI50 in [1] is 70.1 µM (inactive); in assay [2], 18 µM (inactive); in assay [3], 40.5 µM (inactive); in assay [4], 58.6 µM (inactive); in assay [5], 38.5 µM (inactive); in [6] it was > 100 µM (inactive). Also, the GI50 in assay [7] is 98.9 µM (inactive); in assay [8], 57.8 µM (inactive); in [9], > 100 µM (inactive); in assay [10] it was 76 µM (inactive); in [11], 83.8 µM (inactive); in [12], > 100 µM (inactive). Further, the GI50 in assay [13] is 29 µM (inactive); in assay [14], > 100 µM (inactive); in assay [15], > 100 µM (inactive); in assay [16], > 100 µM (inactive); in assay [17] it was 65.3 µM (inactive); in [18], 87.5 µM (inactive). In addition, the GI50 in [19] was 64.3 µM (inactive); in assay [20], 89.1 µM (inactive).

`O=c1ssc(Cl)c1Cl`: the GI50 in [1] is > 7.26 µM (inactive); in assay [2], > 10 µM (inactive); in [3], 3.23 µM (inactive); in assay [4] it was > 10 µM (inactive); in assay [5], 4.05 µM (inactive); in assay [6], > 10 µM (inactive). Besides, the GI50 in [7] is > 10 µM (inactive); in assay [8] it was > 5.6 µM (inactive); in assay [9] it was > 10 µM (inactive); in assay [10] it was > 10 µM (inactive); in assay [11], > 10 µM (inactive); in assay [12], > 10 µM (inactive). Also, the GI50 in assay [13] is > 10 µM (inactive); in [14], > 10 µM (inactive); in [15], > 10 µM (inactive); in assay [16], > 10 µM (inactive); in assay [17], > 10 µM (inactive); in [18], > 7.19 µM (inactive). Moreover, the values for the GI50 in [19] and in assay [20] were > 10 µM (inactive) and > 4.93 µM (inactive), respectively.

As to `COc1cccc(CSCC(=O)O)c1`, the GI50 in assay [1], in [2], in assay [3], in [4], in assay [5] and in assay [6] was > 100 µM (inactive) in each case. Besides, the GI50 in [7], in assay [8], in assay [9], in assay [10], in assay [11] and in assay [12] was > 100 µM (inactive) in each case. Besides, the GI50 in assay [13], in assay [14], in assay [15], in [16], in assay [17] and in assay [18] was > 100 µM (inactive) each time. Also, the GI50 in [19] and in [20] was > 100 µM (inactive) each time.

For the compound `O=C(c1cccs1)N(C(=O)N1CCN(c2ccccc2)CC1)S(=O)(=O)c1ccccc1`, the GI50 in assay [1] is 19.3 µM (inactive); in assay [2], 22.9 µM (inactive); in assay [3], 25.1 µM (inactive); in assay [4], 24 µM (inactive); in [5], 15.6 µM (inactive); in [6], 24 µM (inactive). Moreover, the GI50 in [7] is 32.2 µM (inactive); in [8], 34.7 µM (inactive); in assay [9], 18.6 µM (inactive); in [10], 29 µM (inactive); in assay [11], 28.1 µM (inactive); in assay [12] it was 22.4 µM (inactive). Moreover, the GI50 in [13] was 18.7 µM (inactive); in [14], 46.6 µM (inactive); in assay [15], 27 µM (inactive); in [16], 14.2 µM (inactive); in assay [17] it was 31.8 µM (inactive); in assay [18], 23.8 µM (inactive). The GI50 in assay [19] was 17.6 µM (inactive); in [20], 18.5 µM (inactive).

For the compound `NC(=O)C(=CNC(=S)Nc1ccc(Cl)c(Cl)c1)C(N)=O`, the GI50 in assay [1] is > 94 µM (inactive); in [2] it was 33.1 µM (inactive); in assay [3], > 70 µM (inactive); in [4], > 92.3 µM (inactive); in assay [5] it was 17.5 µM (inactive); in assay [6], 85.1 µM (inactive). Moreover, the GI50 in assay [7] was > 100 µM (inactive); in assay [8] it was 46 µM (inactive); in [9], > 88.3 µM (inactive); in assay [10], > 66.4 µM (inactive); in assay [11], > 85.7 µM (inactive); in assay [12] it was > 100 µM (inactive). Moreover, the GI50 is > 81.3 µM (inactive) in assay [13]; > 78.7 µM (inactive) in assay [14]; > 94.8 µM (inactive) in assay [15]; > 59.6 µM (inactive) in [16]; > 77.8 µM (inactive) in [17]; > 100 µM (inactive) in assay [18]. For the same compound, the GI50 is 49.8 µM (inactive) in assay [19] and 16.5 µM (inactive) in assay [20].

With `CC(=O)Nc1ccc2c3c(cc(O)c2c1)N(C(=O)CCCCC(=O)Nc1ccc2c4c(cc(O)c2c1)N(C(=O)OC(C)(C)C)CC4CCl)CC3CCl` (centres undefined), the GI50 in assay [1] is 3.2 µM (inactive); in assay [2] it was 2.7 µM (inactive); in [3] it was 2.62 µM (inactive); in [4] it was 1.05 µM (active); in assay [5], 0.74 µM (active); in assay [6], 21.7 µM (inactive). Besides, the GI50 in [7] is 2.26 µM (inactive); in assay [8], 2.52 µM (inactive); in assay [9], 3.08 µM (inactive); in assay [10], 3.25 µM (inactive); in assay [11], 4.66 µM (inactive); in assay [12] it was 3.3 µM (inactive). Also, the GI50 in assay [13] is 1.75 µM (inactive); in assay [14] it was 4.4 µM (inactive); in [15], 2.09 µM (inactive); in assay [16], 1.82 µM (inactive); in [17], 10.4 µM (inactive); in assay [18], 2.26 µM (inactive). Moreover, the GI50 in assay [19] was 1.54 µM (inactive); in assay [20] it was 24.3 µM (inactive).

Turning to `COC(=O)/C=C\C(C#N)(C#N)/N=C/c1cccs1`, the GI50 in [1] is 1.84 µM (inactive); in [2], 1.84 µM (inactive); in assay [3], 3.95 µM (inactive); in [4] it was 9.14 µM (inactive); in assay [5] it was 0.783 µM (active); in [6], 18.4 µM (inactive). The GI50 in assay [7] was 11.1 µM (inactive); in [8] it was 5.82 µM (inactive); in assay [9], 3.76 µM (inactive); in [10] it was 13.1 µM (inactive); in assay [11], 18.8 µM (inactive); in assay [12] it was 8.83 µM (inactive). The GI50 in [13] was 18.5 µM (inactive); in [14], 19 µM (inactive); in assay [15], 30.8 µM (inactive); in [16] it was 15.3 µM (inactive); in [17], 1.76 µM (inactive); in assay [18], 14.4 µM (inactive). The GI50 in assay [19] is 11.6 µM (inactive); in assay [20], 2.26 µM (inactive).

With `Cc1cccc2c1C(=O)[C@](C)([C@]1(C)Nc3cccc(C)c3C1=O)N2`, the GI50 was 43.9 µM (inactive) in [1]; 27.3 µM (inactive) in assay [2]; 30.8 µM (inactive) in assay [3]; 25.6 µM (inactive) in [4]; 28.6 µM (inactive) in [5]; 27.7 µM (inactive) in [6]. Besides, the GI50 in assay [7] was 29.7 µM (inactive); in assay [8] it was 47.6 µM (inactive); in [9], 24 µM (inactive); in [10] it was 14.4 µM (inactive); in [11], 20.8 µM (inactive); in assay [12], 37.6 µM (inactive). Moreover, the GI50 was 24 µM (inactive) in [13]; 21.7 µM (inactive) in assay [14]; 27.3 µM (inactive) in [15]; 11 µM (inactive) in [16]; 30.8 µM (inactive) in assay [18]; 28.1 µM (inactive) in assay [19]. Besides, the GI50 in [20] is 18.1 µM (inactive).
